Results taken from PubChem BioAssay (NCI).
“And” between values parts separate entries of the source, which are not always exact repeats. Identical values can stand only once.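 Assay format: 96-well plates, 48-hour exposure. TGI denotes the concentration required for complete inhibition of growth.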

Key:
Experiment in all cases: NCI-60 cell line screen, 48 h
786-0 renal = system: 786-0 renal
A498 renal = system: A498 renal
A549 NSCLC = system: A549 NSCLC
ACHN renal = system: ACHN renal
CAKI-1 renal = system: CAKI-1 renal
CCRF-CEM leukemia = system: CCRF-CEM leukemia
COLO 205 colon = system: COLO 205 colon
DLD-1 colon = system: DLD-1 colon
DMS 114 small cell lung = system: DMS 114 small cell lung
EKVX NSCLC = system: EKVX NSCLC
HCC-2998 colon = system: HCC-2998 colon
HCT-116 colon = system: HCT-116 colon
HCT-15 colon = system: HCT-15 colon
HL-60(TB) leukemia = system: HL-60(TB) leukemia
HOP-18 NSCLC = system: HOP-18 NSCLC
HOP-62 NSCLC = system: HOP-62 NSCLC
HOP-92 NSCLC = system: HOP-92 NSCLC
HT29 colon = system: HT29 colon
IGROV1 ovarian = system: IGROV1 ovarian
K-562 leukemia = system: K-562 leukemia
KM12 colon = system: KM12 colon
KM20L2 colon = system: KM20L2 colon
LOX IMVI melanoma = system: LOX IMVI melanoma
LXFL 529 NSCLC = system: LXFL 529 NSCLC
M14 melanoma = system: M14 melanoma
M19-MEL melanoma = system: M19-MEL melanoma
MALME-3M melanoma = system: MALME-3M melanoma
MOLT-4 leukemia = system: MOLT-4 leukemia
NCI-H226 lung = system: NCI-H226 lung
NCI-H23 lung = system: NCI-H23 lung
NCI-H460 lung = system: NCI-H460 lung
NCI-H522 lung = system: NCI-H522 lung
OVCAR-3 ovarian = system: OVCAR-3 ovarian
OVCAR-4 ovarian = system: OVCAR-4 ovarian
OVCAR-5 ovarian = system: OVCAR-5 ovarian
OVCAR-8 ovarian = system: OVCAR-8 ovarian
RPMI-8226 leukemia = system: RPMI-8226 leukemia
RXF 393 renal = system: RXF 393 renal
SF-268 CNS = system: SF-268 CNS
SF-295 CNS = system: SF-295 CNS
SF-539 CNS = system: SF-539 CNS
SK-MEL-2 melanoma = system: SK-MEL-2 melanoma
SK-MEL-28 melanoma = system: SK-MEL-28 melanoma
SK-MEL-5 melanoma = system: SK-MEL-5 melanoma
SK-OV-3 ovarian = system: SK-OV-3 ovarian
SN12C renal = system: SN12C renal
SNB-19 CNS = system: SNB-19 CNS
SNB-75 CNS = system: SNB-75 CNS
SNB-78 CNS = system: SNB-78 CNS
SR leukemia = system: SR leukemia
TK-10 renal = system: TK-10 renal
U251 CNS = system: U251 CNS
UACC-257 melanoma = system: UACC-257 melanoma
UACC-62 melanoma = system: UACC-62 melanoma
UO-31 renal = system: UO-31 renal
XF 498 CNS = system: XF 498 CNS
SW-620 colon = system: SW-620 colon
DMS 273 small cell lung = system: DMS 273 small cell lung
RXF-631 renal = system: RXF-631 renal

Measured: TGI

CCOC(=O)C1(C)CCC(C(=O)OC)C1=O (stereo not given)
31.7 µM: NCI-H522 lung
> 100 µM: 786-0 renal | A498 renal | A549 NSCLC | ACHN renal | CAKI-1 renal | COLO 205 colon | DLD-1 colon | EKVX NSCLC | HCC-2998 colon | HCT-116 colon | HL-60(TB) leukemia | HOP-18 NSCLC | HOP-62 NSCLC | HOP-92 NSCLC | HT29 colon | IGROV1 ovarian | K-562 leukemia | KM12 colon | KM20L2 colon | LXFL 529 NSCLC | M14 melanoma | M19-MEL melanoma | MALME-3M melanoma | MOLT-4 leukemia | NCI-H226 lung | NCI-H23 lung | OVCAR-3 ovarian | OVCAR-4 ovarian | OVCAR-5 ovarian | OVCAR-8 ovarian | RPMI-8226 leukemia | RXF 393 renal | SF-268 CNS | SF-295 CNS | SF-539 CNS | SK-MEL-2 melanoma | SK-MEL-28 melanoma | SK-MEL-5 melanoma | SK-OV-3 ovarian | SN12C renal | SNB-19 CNS | SNB-75 CNS | SNB-78 CNS | TK-10 renal | U251 CNS | UACC-257 melanoma | UACC-62 melanoma | UO-31 renal | XF 498 CNS
35.1 µM: DMS 114 small cell lung
57.7 µM: CCRF-CEM leukemia
32.9 µM: LOX IMVI melanoma
43.1 µM: HCT-15 colon
51 µM: SR leukemia
28.6 µM: NCI-H460 lung

CC1=N/C(=C\c2ccc(C)cc2)C(=O)O1
> 100 µM: CAKI-1 renal | CCRF-CEM leukemia | COLO 205 colon | DLD-1 colon | HCC-2998 colon | HCT-15 colon | HOP-92 NSCLC | HT29 colon | IGROV1 ovarian | K-562 leukemia | KM12 colon | KM20L2 colon | LXFL 529 NSCLC | M14 melanoma | M19-MEL melanoma | MALME-3M melanoma | MOLT-4 leukemia | NCI-H23 lung | NCI-H522 lung | OVCAR-3 ovarian | OVCAR-4 ovarian | OVCAR-5 ovarian | OVCAR-8 ovarian | RXF 393 renal | SF-295 CNS | SK-MEL-2 melanoma | SK-MEL-28 melanoma | SK-MEL-5 melanoma | SK-OV-3 ovarian | SN12C renal | SNB-19 CNS | SNB-78 CNS | SR leukemia | SW-620 colon | TK-10 renal | U251 CNS | UACC-62 melanoma | UO-31 renal | XF 498 CNS

COC(=O)N/N=C(\C)c1sc(-c2nc(C)c(/C(C)=N/NC(=O)OC)s2)nc1C
45.7 µM: SR leukemia
> 100 µM: 786-0 renal | A498 renal | A549 NSCLC | ACHN renal | CAKI-1 renal | CCRF-CEM leukemia | COLO 205 colon | DLD-1 colon | DMS 114 small cell lung | DMS 273 small cell lung | EKVX NSCLC | HCC-2998 colon | HCT-116 colon | HCT-15 colon | HL-60(TB) leukemia | HOP-18 NSCLC | HOP-62 NSCLC | HOP-92 NSCLC | HT29 colon | IGROV1 ovarian | K-562 leukemia | KM12 colon | KM20L2 colon | LOX IMVI melanoma | LXFL 529 NSCLC | M14 melanoma | M19-MEL melanoma | MALME-3M melanoma | MOLT-4 leukemia | NCI-H226 lung | NCI-H23 lung | NCI-H460 lung | NCI-H522 lung | OVCAR-3 ovarian | OVCAR-4 ovarian | OVCAR-5 ovarian | OVCAR-8 ovarian | RPMI-8226 leukemia | RXF 393 renal | RXF-631 renal | SF-268 CNS | SF-295 CNS | SF-539 CNS | SK-MEL-2 melanoma | SK-MEL-28 melanoma | SK-MEL-5 melanoma | SK-OV-3 ovarian | SN12C renal | SNB-19 CNS | SNB-75 CNS | SNB-78 CNS | TK-10 renal | U251 CNS | UACC-257 melanoma | UACC-62 melanoma | UO-31 renal

CC(C)(C)C1CCC(O)(c2ccccc2)CC1 (stereo not given)
> 100 µM and 57 µM: SNB-78 CNS
> 100 µM and 64.5 µM: SK-MEL-28 melanoma
> 100 µM and 49.2 µM: LXFL 529 NSCLC
> 100 µM and 53.1 µM: TK-10 renal
> 100 µM and 89.2 µM: A549 NSCLC
> 100 µM and 34.7 µM: SN12C renal
> 100 µM and 28.4 µM: SK-MEL-2 melanoma
> 100 µM and 75.3 µM: EKVX NSCLC
> 100 µM and 40.1 µM: SW-620 colon
> 100 µM: CCRF-CEM leukemia | HOP-18 NSCLC | HOP-62 NSCLC | NCI-H23 lung | OVCAR-5 ovarian | SF-295 CNS | SK-OV-3 ovarian | SNB-19 CNS | UO-31 renal
> 100 µM and 43 µM: NCI-H226 lung
> 100 µM and 63.2 µM: MALME-3M melanoma
> 100 µM and 63.6 µM: KM12 colon
> 100 µM and 41.6 µM: 786-0 renal | M19-MEL melanoma
> 100 µM and 52.4 µM: HCT-15 colon
> 100 µM and 55.1 µM: NCI-H522 lung
> 100 µM and 47.9 µM: HCT-116 colon
> 100 µM and 46.9 µM: OVCAR-8 ovarian
> 100 µM and 45.4 µM: SF-539 CNS
> 100 µM and 51.4 µM: A498 renal
> 100 µM and 45.1 µM: UACC-62 melanoma
> 100 µM and 41.7 µM: OVCAR-3 ovarian
> 100 µM and 33 µM: SR leukemia
> 100 µM and 55.8 µM: NCI-H460 lung
22.9 µM: XF 498 CNS
> 100 µM and 75.5 µM: DLD-1 colon
> 100 µM and 41.8 µM: RXF 393 renal
> 100 µM and 30.3 µM: LOX IMVI melanoma
> 100 µM and 31.7 µM: COLO 205 colon | KM20L2 colon
> 100 µM and 60 µM: HCC-2998 colon | SNB-75 CNS
> 100 µM and 68.2 µM: K-562 leukemia
66.8 µM and 32.5 µM: HL-60(TB) leukemia
> 100 µM and 33.6 µM: DMS 273 small cell lung
> 100 µM and 52.5 µM: DMS 114 small cell lung
> 100 µM and 66.6 µM: RPMI-8226 leukemia
> 100 µM and 42.8 µM: M14 melanoma
> 100 µM and 30.2 µM: HT29 colon
> 100 µM and 39.5 µM: MOLT-4 leukemia
> 100 µM and 32.3 µM: U251 CNS
> 100 µM and 81.5 µM: IGROV1 ovarian
> 100 µM and 59.9 µM: ACHN renal
> 100 µM and 28.5 µM: SK-MEL-5 melanoma
> 100 µM and 48.2 µM: UACC-257 melanoma

CC(C)(C)c1ccc(OCCOCCOc2ccc(C(C)(C)C)cc2S(N)(=O)=O)c(S(N)(=O)=O)c1
> 100 µM: 786-0 renal | A498 renal | A549 NSCLC | ACHN renal | CAKI-1 renal | CCRF-CEM leukemia | COLO 205 colon | DLD-1 colon | DMS 114 small cell lung | DMS 273 small cell lung | EKVX NSCLC | HCC-2998 colon | HCT-116 colon | HCT-15 colon | HL-60(TB) leukemia | HOP-18 NSCLC | HOP-62 NSCLC | HOP-92 NSCLC | HT29 colon | IGROV1 ovarian | K-562 leukemia | KM12 colon | LOX IMVI melanoma | M14 melanoma | M19-MEL melanoma | MALME-3M melanoma | NCI-H226 lung | NCI-H23 lung | NCI-H460 lung | OVCAR-3 ovarian | OVCAR-4 ovarian | OVCAR-5 ovarian | OVCAR-8 ovarian | RPMI-8226 leukemia | RXF 393 renal | RXF-631 renal | SF-268 CNS | SF-295 CNS | SF-539 CNS | SK-MEL-2 melanoma | SK-MEL-28 melanoma | SK-MEL-5 melanoma | SK-OV-3 ovarian | SN12C renal | SNB-19 CNS | SNB-75 CNS | SNB-78 CNS | SW-620 colon | TK-10 renal | U251 CNS | UACC-257 melanoma | UACC-62 melanoma | UO-31 renal
28.7 µM: MOLT-4 leukemia
